According to paper PMC5146284, “Molecular imaging with engineered physiology” (Nature Communications, 2016):
Like-named read-outs stand apart in the source and are kept apart here. Positions of bridges follow the written chain, without caps; N, C: chain ends. No end group written: not given here. *: point of attachment. long‑chain biotin = O=C(CCCC[C@@H]1SC[C@@H]2NC(=O)N[C@@H]21)NCCCCCC(=O)*; cfSGFP2 = cysteine-free variant of the GFP

Columns and labels:
[1] = target: T1, RAMP1/CLR CGRP receptor heterodimer in HEK293FT reporter cells (Homo sapiens, UniProt O60894+Q16602); test: Luminescent cAMP (GloSensor) cell-based bioassay for CGRP receptor activation; conditions: for Log(EC50), Cleaved: after protease: (1) 5 ng/μl human FAP, (2) 0.1 U/μl TEV, (3) 2 pg/μl EK light chain, (4) 23 ng/μl, (5) 11.5 ng/μl human CASP3; for Log(EC50), Cleaved / Log(EC50), Uncleaved: s.e.m. <0.1 (n=7); for Log(EC50), Uncleaved: incubated without protease
T1 construct: HA-CALCRL: Human calcitonin receptor-like receptor preceded by the H. influenza; Human receptor-activity modifying protein 1 preceded by the H. influenza; hemagglutinin signal peptide (heterologous, replaces the native one) (N); expressed in transfected cells
T1 sequence (Q16602 23-461): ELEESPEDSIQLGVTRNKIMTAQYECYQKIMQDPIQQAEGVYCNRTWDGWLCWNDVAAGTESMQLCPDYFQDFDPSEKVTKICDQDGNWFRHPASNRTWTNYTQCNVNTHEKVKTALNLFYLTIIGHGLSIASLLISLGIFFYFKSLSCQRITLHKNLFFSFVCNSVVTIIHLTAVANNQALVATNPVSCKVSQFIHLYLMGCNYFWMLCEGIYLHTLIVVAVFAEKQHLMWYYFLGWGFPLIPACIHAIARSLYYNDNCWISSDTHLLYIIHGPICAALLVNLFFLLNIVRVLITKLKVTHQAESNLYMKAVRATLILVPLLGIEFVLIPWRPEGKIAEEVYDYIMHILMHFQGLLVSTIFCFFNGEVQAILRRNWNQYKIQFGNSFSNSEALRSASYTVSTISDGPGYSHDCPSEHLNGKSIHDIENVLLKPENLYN
T1 sequence (O60894 27-148): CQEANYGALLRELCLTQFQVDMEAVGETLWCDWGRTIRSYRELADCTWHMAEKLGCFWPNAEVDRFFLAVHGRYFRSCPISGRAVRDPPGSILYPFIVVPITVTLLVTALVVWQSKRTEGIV

[2] = test system: rat brain (thalamus); nNOS; test: MRI of CGRP response before and after systemic nNOS inhibition with L-NAME; format: in vivo, rat (Sprague-Dawley)
Method: (e) Dissociation of CGRP-induced artificial haemodynamic signals from nitric oxide-mediated signalling. Left, haemodynamic responses observed by imaging upon unilateral CGRP injection into the left thalamus, before L-NAME delivery (-LN, top), or into the right thalamus, after 50 mg kg^−1 intravenous L-NAME infusion (+LN, bottom). […] Error bars throughout this figure denote s.e.m. values (n=4).
High resolution T2-weighted anatomical scans of each animal were obtained using a rapid acquisition with relaxation enhancement (RARE) pulse sequence with echo time (TE)=44 ms, recycle time (TR)=2,500 ms, RARE factor=8, spatial resolution=100 × 100 × 500 μm, and matrix size=128 × 128 with seven slices. Haemodynamic contrast image series were acquired using a gradient echo echo planar imaging (EPI) pulse sequence with TE=34 ms, TR=4,000 ms, spatial resolution=300 × 300 × 500 μm, and matrix size=64 × 64 with seven slices. To parallel the optical imaging experiments, 5 min of baseline measurement with 4 s per image were acquired before probe infusion. Following this baseline period, while continuously collecting EPI scans, infusion pumps were remotely turned on to commence intracranial injection (in the parenchymal tissue) of 1 μl aliquots of CGRP or control solutions at the rate of 0.1 μl min^−1 through the cannulae. […]
MRI data was processed and analysed using the AFNI software package[47]. […]

caspase-3 (CASP3) = test: Proteolytic cleavage by caspase-3 (SDS-PAGE or MALDI); format: biochemical, human; conditions: 10 µM sensor, 2 h, 37 °C; SDS-PAGE (sensor 4) or MALDI (sensor 5)
Method: Proteolytic cleavage reactions
Supplementary Fig. 4. Proteolytic cleavage of candidate sensors and assessment by bioas-say. (a-e) Cleavage reaction products after incubation of 10 µM sensor with or without enzyme for 2 h at 37 °C. (a) MALDI mass spectrum of sensor (1) after incubation with or without FAP […]
(b) SDS-PAGE analysis of sensor
(c) SDS-PAGE analysis of sensor (3) after incubation with different concentrations of EK light […]
(d) SDS-PAGE analysis of sen- […]
and liberation of free CGRP. (f-k) Dose-response curves of uncleaved and cleaved sensors in […]
(f) Dose-response curves for Sensors (2-4) at final assay concentrations up to 10 uM (addition of 10 µL of 100 µM solution to 90 µL medium per well in bioassay) show no receptor activation by uncleaved GFP-linker-CGRP-G sensors even at 10-fold higher concentrations than were used in cleavage assays (g-k). (g-k) Dose-response curves for reaction products from (a-e). Error bars in (f-k) denote SD of measurements performed in triplicate.
(1 picture or pasted object on this page, not shown here)

[3] = test system: CASP3, in rat brain (thalamus); conditions: for significant haemodynamic activation / voxel correlation with vs without CASP3: 100 nM sensor, BOLD MRI
Method: CASP3 sensor aliquots (100 nM) were injected at 0.1 μl min^−1 for 10 min in the presence or absence of CASP3 enzyme (2.3 ng μl^−1) in paired injections into rat thalamus.
High resolution T2-weighted anatomical scans of each animal were obtained using a rapid acquisition with relaxation enhancement (RARE) pulse sequence with echo time (TE)=44 ms, recycle time (TR)=2,500 ms, RARE factor=8, spatial resolution=100 × 100 × 500 μm, and matrix size=128 × 128 with seven slices. Haemodynamic contrast image series were acquired using a gradient echo echo planar imaging (EPI) pulse sequence with TE=34 ms, TR=4,000 ms, spatial resolution=300 × 300 × 500 μm, and matrix size=64 × 64 with seven slices. To parallel the optical imaging experiments, 5 min of baseline measurement with 4 s per image were acquired before probe infusion. Following this baseline period, while continuously collecting EPI scans, infusion pumps were remotely turned on to commence intracranial injection (in the parenchymal tissue) of 1 μl aliquots of CGRP or control solutions at the rate of 0.1 μl min^−1 through the cannulae. […] For the experiments of Fig. 3d, CGRP-based CASP3 sensors (100 nM) were co-injected simultaneously, either with or without comixed CASP3 enzyme (1.15 ng μl^−1).
MRI data was processed and analysed using the AFNI software package[47]. The AFNI 3dAllineate command was used to align each animal's EPI data set to the corresponding RARE anatomical image. Each animal's image data were then aligned to a reference MRI rat atlas[48]. To identify voxels with significant increases or decreases in BOLD signal, we used the 3dDeconvolve routines in AFNI to correlate individual or group level voxel-level signal changes with the injection epochs. For correlation analysis, injection epochs were modeled by ‘box car' regressors with a single stimulus block synchronized with the onset and offset of infusion, without delays. […] The cluster size and P value threshold were objectively chosen, based on AFNI's AlphaSim routine, to provide a type I error rate of 5% after correction for multiple comparisons[49][50]; this was appropriate for robust hypothesis testing on individual voxels throughout the entire imaging volume. […] Time courses were obtained by averaging MRI signal over 1.5 × 1.5 mm regions of interest defined around cannula tip locations in individual animals' data sets. The peak percent signal change was determined by comparing signal values during baseline and infusion conditions. Additional statistical analysis was performed in Matlab.

Compound: CC(C)C[C@H](NC(=O)CNC(=O)[C@H](C)NC(=O)[C@H](CC(C)C)NC(=O)[C@H](CCCNC(=N)N)NC(=O)[C@H](Cc1c[nH]cn1)NC(=O)[C@@H](NC(=O)[C@@H](NC(=O)[C@@H]1CSSC[C@H](NC(=O)[C@H](C)N)C(=O)N[C@@H](CC(=O)O)C(=O)N[C@@H]([C@@H](C)O)C(=O)N[C@@H](C)C(=O)N[C@@H]([C@@H](C)O)C(=O)N1)C(C)C)[C@@H](C)O)C(=O)N[C@@H](CC(C)C)C(=O)N[C@@H](CO)C(=O)N[C@@H](CCCNC(=N)N)C(=O)N[C@@H](CO)C(=O)NCC(=O)NCC(=O)N[C@H](C(=O)N[C@H](C(=O)N[C@@H](CCCCN)C(=O)N[C@@H](CC(N)=O)C(=O)N[C@@H](CC(N)=O)C(=O)N[C@@H](Cc1ccccc1)C(=O)N[C@H](C(=O)N1CCC[C@H]1C(=O)N[C@H](C(=O)N[C@@H](CC(N)=O)C(=O)N[C@H](C(=O)NCC(=O)N[C@@H](CO)C(=O)N[C@@H](CCCCN)C(=O)N[C@@H](C)C(=O)N[C@@H](Cc1ccccc1)C(=O)NCC(=O)O)C(C)C)[C@@H](C)O)C(C)C)C(C)C)C(C)C [CGRP-G]
- EC50 ([1]; C-terminal glycine extension, read-out: 95% CI of EC50 for receptor activation): 2.1 to 3.1 nM
- EC50 ([1]; C-terminal glycine extension, read-out: EC50 for receptor activation): 2.5 nM

Compound: COC(=O)[C@@H](N)CCCNC(N)=N[N+](=O)[O-] [L-NAME, N-nitro-L-arginine methyl ester]
- average increase in baseline brain MRI signal before CGRP infusion ([2]; 50 mg/kg i.v., t-test P=0.11, n=4, not significant): 3.5±2.3%
- increase in baseline MRI signal after L-NAME (review reply) ([2]; during first five minutes after L-NAME injection, n=4): < 5%

Compound: CC(C)C[C@H](NC(=O)CNC(=O)[C@H](C)NC(=O)[C@H](CC(C)C)NC(=O)[C@H](CCCNC(=N)N)NC(=O)[C@H](Cc1c[nH]cn1)NC(=O)[C@@H](NC(=O)[C@@H](NC(=O)[C@@H]1CSSC[C@H](NC(=O)[C@H](C)NC(=O)[C@@H]2CCCN2C(=O)[C@H](C)N)C(=O)N[C@@H](CC(=O)O)C(=O)N[C@@H]([C@@H](C)O)C(=O)N[C@@H](C)C(=O)N[C@@H]([C@@H](C)O)C(=O)N1)C(C)C)[C@@H](C)O)C(=O)N[C@@H](CC(C)C)C(=O)N[C@@H](CO)C(=O)N[C@@H](CCCNC(=N)N)C(=O)N[C@@H](CO)C(=O)NCC(=O)NCC(=O)N[C@H](C(=O)N[C@H](C(=O)N[C@@H](CCCCN)C(=O)N[C@@H](CC(N)=O)C(=O)N[C@@H](CC(N)=O)C(=O)N[C@@H](Cc1ccccc1)C(=O)N[C@H](C(=O)N1CCC[C@H]1C(=O)N[C@H](C(=O)N[C@@H](CC(N)=O)C(=O)N[C@H](C(=O)NCC(=O)N[C@@H](CO)C(=O)N[C@@H](CCCCN)C(=O)N[C@@H](C)C(=O)N[C@@H](Cc1ccccc1)C(N)=O)C(C)C)[C@@H](C)O)C(C)C)C(C)C)C(C)C [Sensor (1)]
- EC50 ([1]; after FAP cleavage, 95% CI, read-out: CI of EC50 following cleavage): 0.013 to 0.02 nM
- EC50 ([1]; uncleaved FAP sensor, 95% CI, read-out: CI of EC50 before cleavage): 0.112 to 0.116 nM
- EC50 ([1]; uncleaved FAP sensor, read-out: EC50 before cleavage): 0.114 nM

Compound: (long-chain biotin)-SG-DEVD-CGRP-amide (disulfide) ({long‑chain biotin}-SGDEVDACDTATCVTHRLAGLLSRSGGVVKNNFVPTNVGSKAF-NH2; disulfide 8-13) [Sensor (5)]
- EC50 ([1]; after CASP3 cleavage, 95% CI, read-out: CI of EC50 following cleavage): 0.038 to 0.046 nM
- EC50 ([1]; uncleaved CASP3 sensor, 95% CI, read-out: CI of EC50 before cleavage): 5.2 to 6.4 nM
- EC50 ([1]; uncleaved CASP3 sensor, read-out: EC50 before cleavage): 5.7 nM

Compound: (long-chain biotin)-SG-DEVD-CGRP-amide (disulfide) [Sensor (5)]
- cleavage by caspase-3 (caspase-3 (CASP3)): complete cleavage
- peak MRI signal change in the absence of CASP3 ([3]; 100 nM sensor alone, 0.1 μl/min, 10 min, n=4): 1.6±0.5%
- mean MRI peak signal change, sensor/CASP3 co-injection ([3]; 100 nM sensor with CASP3, 0.1 μl/min, 10 min, n=4, P=0.02): 7.0±0.9%
- significant haemodynamic activation / voxel correlation with vs without CASP3 ([3]; corrected t-test P<0.05, listed as CASP3 sensor): observed in the presence but not the absence of the co-injected protease
- significant haemodynamic activation / voxel correlation with vs without CASP3 ([3]; corrected t-test P<0.05, listed as CGRP-based molecular imaging probe (5)): Significant haemodynamic activation can be seen in the presence but not the absence of coadministered 1.15 ng μl^−1 CASP3
- protease sensitivity and post-cleavage potency, ranking ([1]; comparison of sensors): optimum protease sensitivity and post-cleavage potency

Compound: cfSGFP2-DDDDK-CGRP-G (cfSGFP2-GGSGDDDDKACDTATCVTHRLAGLLSRSGGVVKNNFVPTNVGSKAFG; ends and bridges not checked; also: StrepII tag, position not given here) [Sensor (3), recombinant fusion of cysteine-free GFP, a short linker, enterokinase site and non-amidated CGRP]
- Log(EC50), Cleaved [1]: −6.4
- Log(EC50), Uncleaved [1]: <−5

Compound: cfSGFP2-DEVD-CGRP-G (cfSGFP2-GGSGDEVDACDTATCVTHRLAGLLSRSGGVVKNNFVPTNVGSKAFG; ends and bridges not checked; also: StrepII tag, position not given here) [Sensor (4), recombinant fusion of cysteine-free GFP, a short linker, caspase-3 site and non-amidated CGRP]
- Log(EC50), Cleaved [1]: −6.4
- Log(EC50), Uncleaved [1]: <−5

Compound: cfSGFP2-DEVD-CGRP-G [Sensor (4), recombinant fusion of cysteine-free GFP, a short linker, caspase-3 site and non-amidated CGRP]
- cleavage by caspase-3 (caspase-3 (CASP3)): near-complete

Compound: cfSGFP2-ENLYFQG-CGRP-G (cfSGFP2-GGSGENLYFQGACDTATCVTHRLAGLLSRSGGVVKNNFVPTNVGSKAFG; ends and bridges not checked; also: StrepII tag, position not given here) [Sensor (2), recombinant fusion of cysteine-free GFP, a short linker, TEV protease site and non-amidated CGRP]
- Log(EC50), Cleaved [1]: −6.0
- Log(EC50), Uncleaved [1]: <−5
